Assay results from ChEMBL document CHEMBL5038650, “In Vitro and In Vivo Inhibition of the Mycobacterium tuberculosis Phosphopantetheinyl Transferase PptT by Amidinoureas” (J Med Chem, 2022).
pIC50: −log10 of the molar value.

Target: Voltage-gated inwardly rectifying potassium channel KCNH2 (Homo sapiens, UniProt Q12809)
Sequence (Q12809 whole entry): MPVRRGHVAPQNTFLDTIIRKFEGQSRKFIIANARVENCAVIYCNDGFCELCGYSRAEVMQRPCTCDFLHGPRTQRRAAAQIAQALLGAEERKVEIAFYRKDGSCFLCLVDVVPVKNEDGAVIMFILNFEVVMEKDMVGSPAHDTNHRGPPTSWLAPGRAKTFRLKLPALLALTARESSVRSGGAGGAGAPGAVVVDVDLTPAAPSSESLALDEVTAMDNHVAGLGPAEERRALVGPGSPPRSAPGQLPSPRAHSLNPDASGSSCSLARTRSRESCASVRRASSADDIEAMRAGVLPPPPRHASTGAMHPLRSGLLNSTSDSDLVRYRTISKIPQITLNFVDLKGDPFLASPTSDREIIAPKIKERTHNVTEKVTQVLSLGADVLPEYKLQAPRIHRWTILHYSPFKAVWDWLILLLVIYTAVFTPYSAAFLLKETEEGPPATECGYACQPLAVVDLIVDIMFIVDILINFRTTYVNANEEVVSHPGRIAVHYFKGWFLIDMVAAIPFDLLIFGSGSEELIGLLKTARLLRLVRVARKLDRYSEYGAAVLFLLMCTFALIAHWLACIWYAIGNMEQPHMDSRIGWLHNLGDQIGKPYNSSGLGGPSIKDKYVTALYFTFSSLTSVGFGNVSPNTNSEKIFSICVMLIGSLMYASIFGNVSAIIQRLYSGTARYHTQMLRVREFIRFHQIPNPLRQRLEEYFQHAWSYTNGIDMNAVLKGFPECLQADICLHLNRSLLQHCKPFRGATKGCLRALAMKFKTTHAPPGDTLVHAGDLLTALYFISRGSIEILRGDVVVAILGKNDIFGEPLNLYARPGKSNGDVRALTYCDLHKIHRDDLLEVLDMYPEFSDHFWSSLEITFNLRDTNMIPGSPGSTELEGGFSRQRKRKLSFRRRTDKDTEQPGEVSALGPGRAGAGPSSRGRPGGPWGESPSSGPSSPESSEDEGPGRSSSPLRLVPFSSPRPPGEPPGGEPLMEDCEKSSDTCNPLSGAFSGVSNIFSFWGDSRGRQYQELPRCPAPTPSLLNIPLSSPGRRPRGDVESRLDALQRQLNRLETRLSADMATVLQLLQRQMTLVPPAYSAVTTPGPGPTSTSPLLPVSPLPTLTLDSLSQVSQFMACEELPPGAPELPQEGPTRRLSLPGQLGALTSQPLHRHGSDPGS
Description: Inhibition of hERG expressed in HEK cells by patch clamp method

SMILES | pIC50
CCNC(=N)NC(=O)Nc1c(CC)cc(NS(=O)(=O)c2ccccc2)cc1CC | < 4.52
CCNC(=N)NC(=O)Nc1c(CC)cc(C(=O)NC(C)C)cc1CC | < 4.52
CCNC(=N)NC(=O)Nc1c(CC)cc(S(=O)(=O)NCC)cc1CC | < 4.52
CCNC(=N)NC(=O)Nc1c(CC)cc(C(=O)NCc2ccccc2)cc1CC | < 4.52
